Source: PubChem BioAssay AID248 (DTP/NCI, 2004)
“And” between values parts separate entries of the source, which are not always exact repeats. Equal entries are not always repeated. Inconclusive results and toxic doses are left out. Rule as the data show it: active = T/C of 150% or more; inactive = T/C below 125%.

Tested on: L1210 leukemia ip in BDF1 mice, survival T/C
Experiment: NCI In Vivo Anticancer Drug Screen. Data for tumor model L1210 Leukemia (intraperitoneal) in B6D2F1 (BDF1) mice
Conditions: endpoint: mean survival time, higher = longer survival
Procedure, shortened: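 Value reflects the ratio of survival in compound-treated mice to survival in vehicle-treated controls, with both groups carrying the same transplanted tumor.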

[1] = dose: 100.0 mg/kg/injection, schedule: Q01DX001 (ip), vehicle: saline
[2] = dose: 200.0 mg/kg/injection, schedule: Q01DX001 (ip), vehicle: saline
[3] = dose: 400.0 mg/kg/injection, schedule: Q01DX001 (ip), vehicle: saline
[4] = dose: 100.0 mg/kg/injection, schedule: Q04DX003 (ip), vehicle: saline
[5] = dose: 100.0 mg/kg/injection, schedule: Q01DX009 (ip), vehicle: saline with Tween-80
[6] = dose: 100.0 mg/kg/injection, schedule: Q04DX003 (ip), vehicle: Klucel (hydroxypropylcellulose) (HPC)
[7] = dose: 200.0 mg/kg/injection, schedule: Q04DX003 (ip), vehicle: Klucel (hydroxypropylcellulose) (HPC)

Measured: T/C

O=C(COc1ccccc1)c1ccccc1
inactive: dose: 12.5 mg/kg/injection, schedule: Q04DX002 (ip), vehicle: Klucel (hydroxypropylcellulose) (HPC) 93 % of control | dose: 25.0 mg/kg/injection, schedule: Q04DX002 (ip), vehicle: Klucel (hydroxypropylcellulose) (HPC) 104 % of control | dose: 50.0 mg/kg/injection, schedule: Q04DX002 (ip), vehicle: Klucel (hydroxypropylcellulose) (HPC) 96 % of control | dose: 200.0 mg/kg/injection, schedule: Q04DX002 (ip), vehicle: Klucel (hydroxypropylcellulose) (HPC) 95 % of control

CS(=O)(=O)n1c(CO)nc2ccccc21
inactive: dose: 100.0 mg/kg/injection, schedule: Q01DX001 (ip), vehicle: carboxymethylcellulose (CMC) 101 % of control | dose: 200.0 mg/kg/injection, schedule: Q01DX001 (ip), vehicle: carboxymethylcellulose (CMC) 92 % of control | dose: 400.0 mg/kg/injection, schedule: Q01DX001 (ip), vehicle: carboxymethylcellulose (CMC) 97 % of control

CCOP(=S)(OCC)S/C(C(=O)NC)=C(/C)O
inactive: dose: 6.25 mg/kg/injection, schedule: Q01DX009 (ip), vehicle: Klucel (hydroxypropylcellulose) (HPC) 94 % of control | dose: 12.5 mg/kg/injection, schedule: Q01DX009 (ip), vehicle: Klucel (hydroxypropylcellulose) (HPC) 97 % of control | dose: 100.0 mg/kg/injection, schedule: Q04DX003 (sc), vehicle: olive oil, sesame oil, peanut oil 103 % of control | dose: 200.0 mg/kg/injection, schedule: Q04DX003 (sc), vehicle: olive oil, sesame oil, peanut oil 106 % of control

CC1(C)c2ccccc2-c2nc3ccccc3nc2C1O (stereo unspecified)
inactive: dose: 100.0 mg/kg/injection, schedule: Q01DX001 (ip), vehicle: Klucel (hydroxypropylcellulose) (HPC) 94 % of control | dose: 200.0 mg/kg/injection, schedule: Q01DX001 (ip), vehicle: Klucel (hydroxypropylcellulose) (HPC) 97 % of control | dose: 400.0 mg/kg/injection, schedule: Q01DX001 (ip), vehicle: Klucel (hydroxypropylcellulose) (HPC) 103 % of control

COC1CCC2=C(C1)C(=O)CC1c3ccccc3CCN21 (stereo unspecified) (tested in a mixture with another compound)
inactive: dose: 6.25 mg/kg/injection, schedule: Q04DX003 (ip), vehicle: saline with Tween-80 97 % of control | dose: 12.5 mg/kg/injection, schedule: Q04DX003 (ip), vehicle: saline with Tween-80 107 % of control | dose: 25.0 mg/kg/injection, schedule: Q04DX003 (ip), vehicle: saline with Tween-80 102 % of control

COc1cc(N)c2ncccc2c1[N+](=O)[O-]
inactive: dose: 50.0 mg/kg/injection, schedule: Q01DX001 (ip), vehicle: saline 112 % of control | [1] 106 % of control | [2] 106 % of control | [3] 104 % of control

Cc1nc(NN)c(C(N)=O)nc1C
inactive: dose: 25.0 mg/kg/injection, schedule: Q01DX009 (ip), vehicle: saline 98 % of control | dose: 25.0 mg/kg/injection, schedule: Q04DX003 (ip), vehicle: saline 101 % of control | dose: 50.0 mg/kg/injection, schedule: Q01DX009 (ip), vehicle: saline 96 % of control | dose: 50.0 mg/kg/injection, schedule: Q04DX003 (ip), vehicle: saline 103 % of control | [4] 104 % of control

NC(=NC(=O)c1ccccc1)N[N+](=O)[O-]
inactive: dose: 100.0 mg/kg/injection, schedule: Q04DX002 (ip), vehicle: gum acacia 104 % of control | dose: 200.0 mg/kg/injection, schedule: Q04DX002 (ip), vehicle: gum acacia 107 % of control | dose: 400.0 mg/kg/injection, schedule: Q04DX002 (ip), vehicle: gum acacia 104 % of control

Cc1ccc(NSC(Cl)(Cl)Cl)cc1
inactive: dose: 50.0 mg/kg/injection, schedule: Q04DX002 (ip), vehicle: saline with Tween-80 101 % of control | dose: 100.0 mg/kg/injection, schedule: Q04DX002 (ip), vehicle: saline with Tween-80 106 % of control and 108 % of control | dose: 200.0 mg/kg/injection, schedule: Q04DX002 (ip), vehicle: saline with Tween-80 98 % of control and 123 % of control

COC(=O)c1cn[nH]c1N=Nc1ccc(N(CCCl)CCCl)cc1
inactive: dose: 75.0 mg/kg/injection, schedule: Q01DX001 (ip), vehicle: other 109 % of control | dose: 150.0 mg/kg/injection, schedule: Q01DX001 (ip), vehicle: other 124 % of control | dose: 300.0 mg/kg/injection, schedule: Q01DX001 (ip), vehicle: other 119 % of control

Cc1ccc(N2C(=O)C=CC2=O)cc1
inactive: dose: 100.0 mg/kg/injection, schedule: Q04DX003 (ip), vehicle: acetone 97 % of control | dose: 200.0 mg/kg/injection, schedule: Q04DX003 (ip), vehicle: acetone 92 % of control | dose: 400.0 mg/kg/injection, schedule: Q04DX003 (ip), vehicle: acetone 86 % of control

CC(=O)c1ccc(OC(=O)Nc2ccccc2F)cc1
inactive: dose: 25.0 mg/kg/injection, schedule: Q01DX009 (ip), vehicle: saline with Tween-80 112 % of control | dose: 50.0 mg/kg/injection, schedule: Q01DX009 (ip), vehicle: saline with Tween-80 111 % of control | [5] 96 % of control and 110 % of control

CC(=O)OCC(C)(C)c1ccccc1
inactive: dose: 100.0 mg/kg/injection, schedule: Q04DX002 (ip), vehicle: saline 105 % of control | dose: 200.0 mg/kg/injection, schedule: Q04DX002 (ip), vehicle: saline 97 % of control | dose: 400.0 mg/kg/injection, schedule: Q04DX002 (ip), vehicle: saline 105 % of control

CCCCCC(C[N+](C)(C)C)C(=O)/C=C/c1ccc(Cl)cc1 (stereo unspecified)
inactive: [6] 96 % of control | [7] 106 % of control

CC(C)COC(=O)c1cc(O)c(O)c(O)c1
inactive: [5] 100 % of control | dose: 100.0 mg/kg/injection, schedule: Q04DX003 (ip), vehicle: saline with Tween-80 97 % of control | dose: 200.0 mg/kg/injection, schedule: Q01DX009 (ip), vehicle: saline with Tween-80 107 % of control | dose: 200.0 mg/kg/injection, schedule: Q04DX003 (ip), vehicle: saline with Tween-80 105 % of control | dose: 400.0 mg/kg/injection, schedule: Q01DX009 (ip), vehicle: saline with Tween-80 107 % of control | dose: 400.0 mg/kg/injection, schedule: Q04DX003 (ip), vehicle: saline with Tween-80 95 % of control

COC(=O)c1cccc2c1C(Br)C(Br)c1ccccc1-2 (stereo unspecified)
inactive: [1] 101 % of control | [4] 100 % of control | [2] 98 % of control | dose: 200.0 mg/kg/injection, schedule: Q04DX003 (ip), vehicle: saline 97 % of control | [3] 98 % of control | dose: 400.0 mg/kg/injection, schedule: Q04DX003 (ip), vehicle: saline 94 % of control

CCC(CCCN(CC)CCc1ccccc1)OC(=O)c1cc(OC)c(OC)c(OC)c1 (stereo unspecified)
inactive: dose: 4.68 mg/kg/injection, schedule: Q01DX009 (ip), vehicle: saline 106 % of control | dose: 9.37 mg/kg/injection, schedule: Q01DX009 (ip), vehicle: saline 100 % of control | dose: 18.75 mg/kg/injection, schedule: Q01DX009 (ip), vehicle: saline 100 % of control | dose: 18.75 mg/kg/injection, schedule: Q04DX003 (ip), vehicle: saline 118 % of control | dose: 37.5 mg/kg/injection, schedule: Q01DX009 (ip), vehicle: saline 100 % of control | dose: 37.5 mg/kg/injection, schedule: Q04DX003 (ip), vehicle: saline 97 % of control | dose: 75.0 mg/kg/injection, schedule: Q01DX009 (ip), vehicle: saline 95 % of control | dose: 75.0 mg/kg/injection, schedule: Q04DX003 (ip), vehicle: saline 103 % of control

c1ccc(-c2c[nH]c(-c3ccccc3)c2)cc1
inactive: [6] 124 % of control | dose: 200.0 mg/kg/injection, schedule: Q01DX001 (ip), vehicle: steriod suspending solution 103 % of control | [7] 100 % of control | dose: 400.0 mg/kg/injection, schedule: Q01DX001 (ip), vehicle: steriod suspending solution 103 % of control | dose: 400.0 mg/kg/injection, schedule: Q04DX003 (ip), vehicle: Klucel (hydroxypropylcellulose) (HPC) 94 % of control
